Assay results published in paper PMC11866022, “Long-Chain Cyclic Arylguanidines as Multifunctional Serotonin Receptor Ligands with Antiproliferative Activity” (ACS Omega, 2025).

Columns and labels:
5-HT6 = target: T1, 5-HT6 (Homo sapiens, UniProt P50406); test: Radioligand binding assay, 5-HT6 ([3H]-LSD); conditions: HEK293 cell line with human 5-HT6R; 2 nM [3H]-LSD
T1 construct: expressed in transfected cells; host or cells: HEK293
Procedure: Ligand affinity for 5-HT6 receptors was subsequently tested with a radioligand binding assay, using the HEK293 cell line with human 5-HT6R, aiming to select compounds with the strongest affinity. Three compounds belonging to 2-naphthalenesulfonamide derivatives of 3,4-dihydroquinazolin-2-amines were obtained (Table 1).
(§1) The detailed procedure is presented in previous publications.[53] Assays were performed by incubating for 1 h at 37 °C (room temperature for 5-HT1A) in 200 μL volumes on 96-well plates. The reaction was terminated by rapid filtration using Unifilter plates, and radioactivity on the filters was measured with a PerkinElmer Microbeta plate reader. Radioligands used were:
(§2) Eight concentrations (10^–4 to 10^–11 M) were tested in triplicate for each compound. Inhibition constants (Ki) were calculated using the Cheng–Prusoff equation.[54] The results are expressed as the means of at least two independent experiments.

5-HT5A = 5-HT5A (Homo sapiens, UniProt P47898); test: Radioligand binding assay, 5-HT5A ([3H]-LSD); conditions: Table 3, unit inferred; 3.5 nM [3H]-LSD
Procedure: (§3) Their functional activity was also evaluated by assessing their ability to inhibit agonist-induced cAMP production in HEK293 cells (Table 3). Extended radioisotope tests were aimed at detecting potential affinity for other aminergic receptors, whose role in cancer treatment may be important. Functions were tested for all receptors. The essence of functional tests results from the fact that serotonin stimulates tumor progression. Therefore, the ligand should have the potential to reduce its concentration, i.e., act as an antagonist.[39]
as §1, §2

5-HT1A = target: T2, 5-HT1A (Homo sapiens, UniProt P08908); test: Functional cAMP assay (LANCE Ultra), 5-HT1A; type: cell-based; conditions: for EC50: agonist mode; for function at 5-HT1A: in words
T2 construct: expressed in transfected cells; host or cells: HEK293
T2 sequence (P08908 1-422): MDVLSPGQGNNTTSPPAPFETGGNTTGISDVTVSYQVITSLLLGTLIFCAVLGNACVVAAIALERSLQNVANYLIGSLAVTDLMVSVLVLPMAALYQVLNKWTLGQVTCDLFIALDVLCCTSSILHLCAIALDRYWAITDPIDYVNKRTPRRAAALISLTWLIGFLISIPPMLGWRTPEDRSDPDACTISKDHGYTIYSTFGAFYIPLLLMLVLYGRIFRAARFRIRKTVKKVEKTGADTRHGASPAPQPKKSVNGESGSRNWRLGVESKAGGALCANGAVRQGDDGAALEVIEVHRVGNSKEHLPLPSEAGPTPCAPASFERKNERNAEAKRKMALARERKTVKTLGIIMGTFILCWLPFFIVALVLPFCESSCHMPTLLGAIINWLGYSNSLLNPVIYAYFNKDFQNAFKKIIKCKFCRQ
Procedure: as §3
The detailed procedure is presented in previous publications.[53] The functional activity of the compounds was assessed using the LANCE Ultra cAMP detection kit (PerkinElmer). […] For other receptors (5-HT7R, 5-HT1AR, and 5-HT6R), 5-CT was used at 10, 100, and 1000 nM, respectively. Each compound was tested in triplicate across eight concentrations. The inhibitory constant (Kb) for each antagonist was calculated using the Cheng–Prusoff equation.

1321N1 astrocytoma cells = test: Antiproliferative activity (MTS), 1321N1; type: cell-based, human; conditions: Homo sapiens, 1321-N1; MTS assay
Procedure: (§4) These cell lines were characterized by different mutation profiles, the main one being the variable status of the p53 protein. In detail, U87MG cells have a wild-type p53 protein, while astrocytoma and the rest of GBM cells harbor mutated p53 protein. Additional assays were performed on MCF7 breast cancer and AsPC-1 pancreatic cancer cells. The wide range of tested lines was aimed at screening the anticancer potential of the tested compounds. The first represents one of the most common and the second one of the most aggressive cancers in the world. Comparing the activity of compounds on GBM cells to other types of cancer may reveal their selectivity and usefulness in targeted therapies. The cytotoxicity of the compounds on normal human astrocytes (NHA) and Feline catus astrocyte (PG-4) was determined. Tests on normal lines serve to verify the potential toxicity of the tested compounds on healthy cells. Due to the targeting of CNS tumors, astrocytes were selected as normal lines.
(§5) The detailed procedure is presented in previous publications.[53] […] Cells were cultured in appropriate media, supplemented with FBS, antibiotics, and other supplements, and incubated at 37 °C with 5% CO2. […] Cell viability was assessed using the MTS assay, and the inhibitory concentration (IC50) was calculated using GraphPad Prism 8.0. Each compound was tested in triplicate across multiple experiments.
Supplementary materials - Biological research […]

U87MG glioblastoma cells = test: Antiproliferative activity (MTS), U87MG; type: cell-based, human; conditions: Homo sapiens, U-87 MG; MTS assay
Procedure: as §4, §5
Supplementary materials - Biological research
B) U87MG glioblastoma multiforme line.
and U87MG glioblastoma multiforme line for C) PP 3; D) PP 6; E) PP 8; F) PP 10; G) PP 11; H) PP

[1] = tested on: LN-229 glioblastoma cells; test: Antiproliferative activity (MTS), LN-229; type: cell-based, human; conditions: Homo sapiens, LN-229; MTS assay, 72 h
Procedure: as §4, §5

[2] = Affinity to phospholipids, CHI IAM (Valko protocol); type: physicochemical; conditions: IAM column
Procedure: Lipophilicity and affinity for phospholipids for each investigated molecule were assessed. Additionally, selected compounds with the highest biological activities have been characterized by their affinity plasma proteins. All experiments were performed using protocols developed by Valko.[35] These methods facilitated the calculation of chromatographic hydrophobicity indices (CHI) and plasma protein binding percentages (%PPB) in a biochromatographic experiment, with results compared to the reference. A detailed description of the experiments is provided in the Supporting Information (SI), along with the raw data. […] Although high lipophilicity may limit the medical use of the analyzed compounds since they may tend to accumulate excessively in the human body, it is remarkable that several clinically used drugs also have high lipophilicity. […] (Table 5).
The detailed procedure is presented in previous publications.[53] High-performance liquid chromatography (HPLC) analyses were conducted using the Prominence-1 LC-2030C 3D system (Shimadzu) with a DAD detector, employing three different chromatographic columns with specific stationary phases and mobile phases. The analysis was performed at 30 °C with a flow rate of 1.5 mL/min for IAM and C18 columns, and 0.9 mL/min for the Chiralpak column. Calibration standards for the columns were sourced from various suppliers and dissolved in dimethyl sulfoxide. Detection occurred in the UV range (190–300 nm) with a 5 μL injection volume. Each compound was analyzed in triplicate. Retention times for the tested compounds and calibration standards are provided in the Supporting Information (Tables S1 and S2).

[3] = Solubility in DMSO and 10% DMSO in PBS buffer; type: physicochemical; conditions: symbols not defined; for Solubility, 10% DMSO, 1 mM: 10% DMSO in PBS buffer
Procedure: for 24 h. […] The IC50 were calculated as
Table S1. Solubility in DMSO and 10% DMSO in PBS buffer
3. Absorption – PAMPA permeability test
*Permeability coefficient.
**CFN = caffeine, well-permeable control

in vitro = conditions: PAMPA

Chain of 5-HT5A (P47898 whole entry, species assumed): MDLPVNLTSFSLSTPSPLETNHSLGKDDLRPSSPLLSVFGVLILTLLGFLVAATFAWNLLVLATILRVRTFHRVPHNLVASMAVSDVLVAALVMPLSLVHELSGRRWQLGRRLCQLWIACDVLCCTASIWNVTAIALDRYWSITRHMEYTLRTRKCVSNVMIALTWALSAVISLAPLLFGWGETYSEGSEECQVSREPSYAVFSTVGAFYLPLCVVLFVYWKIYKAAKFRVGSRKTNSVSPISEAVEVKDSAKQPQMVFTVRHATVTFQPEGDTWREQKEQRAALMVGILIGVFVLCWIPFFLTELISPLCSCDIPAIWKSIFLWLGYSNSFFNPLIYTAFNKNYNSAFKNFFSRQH
T1 sequence (P50406 whole entry): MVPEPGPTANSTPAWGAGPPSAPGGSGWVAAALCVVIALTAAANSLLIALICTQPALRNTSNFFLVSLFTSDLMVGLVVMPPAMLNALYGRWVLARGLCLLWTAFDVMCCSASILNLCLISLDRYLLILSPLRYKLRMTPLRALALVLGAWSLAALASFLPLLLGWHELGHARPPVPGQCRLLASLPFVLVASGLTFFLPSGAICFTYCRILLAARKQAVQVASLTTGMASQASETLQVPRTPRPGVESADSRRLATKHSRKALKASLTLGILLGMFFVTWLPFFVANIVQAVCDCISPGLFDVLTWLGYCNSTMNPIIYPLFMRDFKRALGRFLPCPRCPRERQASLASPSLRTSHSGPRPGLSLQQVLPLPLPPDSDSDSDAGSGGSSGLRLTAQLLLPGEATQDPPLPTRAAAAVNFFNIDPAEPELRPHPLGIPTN

SMILES | Ki (5-HT6) [µM] | Ki (5-HT5A) [µM] | EC50 (5-HT1A; Table 3, unit inferred, cAMP) [µM] | function at 5-HT1A (5-HT1A) | IC50 (1321N1 astrocytoma cells) [µM] | IC50 (U87MG glioblastoma cells) [µM] | IC50 [1] [µM] | CHI IAM [2] | Kb (5-HT1A; Table 3, unit inferred, cAMP, antagonist mode, 5-CT) [µM] | Solubility, 10% DMSO, 1 mM [3] | Solubility, 100% DMSO, 10 mM [3] | Papp (in vitro) [×10⁻⁶ cm/s]
O=S(=O)(c1cccc2ccccc12)N1CCN(CCNC2=Nc3ccccc3CN2)CC1 [PP 6, N-{2-[4-(Naphthalene-1-sulfonyl)piperazin-1-yl]ethyl}-3,4-dihydroquinazolin-2-amine] | 0.109 ± 0.027 | 0.328 | 0.375 | agonist | 20.9 ± 1.4 | > 25 | > 25 | 50.9 | – | – | – | –
CC1NC(NCCCCCCNS(=O)(=O)c2cccc3ccccc23)=Nc2ccccc21 (stereo not shown) [PP 10, N-{6-[(4-Methyl-3,4-dihydroquinazolin-2-yl)amino]hexyl}naphthalene-1-sulfonamide] | 0.096 ± 0.022 | 0.059 | – | antagonist | 13.4 ± 0.8 | 20.7 ± 1.2 | > 25 | 56.4 | 0.074 | + + + | + + + | 0.03
CC1NC(NCCCCCCNS(=O)(=O)c2c(Cl)ccc3ccccc23)=Nc2ccccc21 (stereo not shown) [PP 13, 2-Chloro-N-{6-[(4-methyl-3,4-dihydroquinazolin-2-yl)amino]hexyl}naphthalene-1-sulfonamide] | 0.069 ± 0.017 | – | 1.54 | agonist | 9.6 ± 1.8 | 13.6 ± 1.1 | > 25 | 59.9 | – | + + + | + + + | 0.19
O=S(=O)(NCCCCCCNc1ncc2ccccc2n1)c1cccc2ccccc12 [PP 15, N-{6-[(Quinazolin-2-yl)amino]hexyl}naphthalene-1-sulfonamide] | 0.042 ± 0.011 | 1.09 | – | – | > 25 | > 25 | > 25 | 45.8 | – | + + - | + + - | 0.13
O=S1(=O)c2cccc3cccc(c23)N1CCCCCCNC1=Nc2ccccc2CN1 [PP 24, 3-{6-[(3,4-Dihydroquinazolin-2-yl)amino]hexyl}-2λ^6-thia-3-azatricyclo[6.3.1.0^4,^12]dodeca-1(11),4(12),5,7,9-pentaene-2,2-dione] | 0.272 ± 0.068 | – | – | – | 8.4 ± 1.9 | 13.6 ± 0.6 | 18.4 ± 1.1 | 56.5 | – | + + + | + + + | 0.73
